{
  "source": "patent US6900221B1",
  "about": "“Stable polymorph on N-(3-ethynylphenyl)-6, 7-bis (2methoxyethoxy)-4-quinazolinamine hydrochloride, methods of production, and pharmaceutical uses thereof” (OSI Pharmaceuticals, Inc., priority 1999, dated 2005)",
  "key": {"[1]": {"test": "Thermodynamic stability of the polymorphic forms", "type": "physicochemical", "conditions": "hydrochloride polymorph forms compared"}, "[2]": {"tested_on": "refractory ovarian cancer", "test": "Phase II single agent study in refractory ovarian cancer", "type": "in vivo, human", "conditions": "150 mg daily, preliminary results", "source_text": "Evidence of anti-tumor activity can also be seen in the patients with ovarian cancer in the on-going Phase II study."}, "[3]": {"tested_on": "cancer patients with multiple tumor types", "test": "Phase I clinical studies, preliminary evidence of effectiveness in cancer patients", "type": "in vivo, human", "conditions": "one Phase I study of 28 patients"}, "[4]": {"test": "Phase I clinical studies, safety", "type": "in vivo, human", "method": "[…]. […] In a daily dosing regimen study the dose limiting toxicity at 200 mg/day was diarrhea. This observed side effect was effectively controlled at the 150 mg daily dose level using Loperamide (Imodium®). […] The rash has a unique histopathology of PMN infiltration with mild epidermal hyperproliferation. It is not consistent with drug hypersensitivity nor does it appear to be a “named” dermatological condition. This rash has not been a significant impediment to patients staying on the Phase II trials. […]. […] For example, in one Phase I study of 28 patients, 8 patients remain alive over a year after inception of treatment and 12 patients remained alive from 9-22 months."}, "[5]": {"tested_on": "advanced head and neck cancer", "test": "Phase II single agent study in advanced head and neck cancer", "conditions": "150 mg daily"}, "[6]": {"tested_on": "refractory non-small cell lung cancer (NSCLC)", "conditions": "150 mg daily, first 19 evaluable patients", "text": "Qualification criteria for the open label, single agent study required the patients to have failed platinum-based chemotherapy and to have tumors that are histopathologically confirmed to be EGFR positive. The primary endpoint in the study is response rate with stable disease and time-to-progression amongst the secondary end-points."}, "[7]": {"test": "Solubility in aqueous compositions", "type": "physicochemical", "conditions": "compared with the hydrochloride compound"}, "[8]": {"conditions": "advanced head and neck cancer, preliminary results"}},
  "data": [
    {"smiles": "C#Cc1cccc(Nc2ncnc3cc(OCCOC)c(OCCOC)cc23)c1.Cl", "note": "[polymorph A, N-(3-ethynylphenyl)-6,7-bis(2-methoxyethoxy)-4-quinazolinamine hydrochloride]", "values": [
      {"measurement": "thermodynamic stability", "setting": "[1]", "result": "thermodynamically less stable"}
    ]},
    {"smiles": "C#Cc1cccc(Nc2ncnc3cc(OCCOC)c(OCCOC)cc23)c1.Cl", "note": "[hydrochloride compound, [6,7-bis(2-methoxyethoxy)-quinazolin-4-yl]-(3-ethynylphenyl)amine hydrochloride, reference compound]", "values": [
      {"measurement": "thermodynamic stability", "setting": "[1]", "result": "partially reduced stability"}
    ]},
    {"smiles": "C#Cc1cccc(Nc2ncnc3cc(OCCOC)c(OCCOC)cc23)c1.Cl", "note": "[polymorph B, N-(3-ethynylphenyl)-6,7-bis(2-methoxyethoxy)-4-quinazolinamine hydrochloride]", "values": [
      {"measurement": "thermodynamic stability", "setting": "[1]", "result": "thermodynamically most stable"},
      {"measurement": "patients with objective partial responses", "setting": "[2]", "result": 2, "unit": "patients"},
      {"measurement": "patients with stabilization of disease status", "setting": "[2]", "result": 4, "unit": "patients"},
      {"measurement": "patients alive over a year after inception of treatment", "setting": "[3]", "result": 8, "unit": "patients"},
      {"measurement": "patients remained alive from 9-22 months", "setting": "[3]", "result": 12, "unit": "patients"},
      {"measurement": "most significant toxicity", "setting": "[4]; 150 mg daily", "result": "monomorphic acneiform rash"},
      {"measurement": "severity of adverse events", "setting": "[4]; Phase I, volunteers and cancer patients, dose of 150 mg/day", "result": "no adverse events that were greater than moderate in severity"},
      {"measurement": "dose limiting toxicity", "setting": "[4]; daily dosing regimen study, 200 mg/day", "result": "diarrhea"},
      {"measurement": "safety profile", "setting": "[4]; total of 290 patients in Phase I and ongoing Phase II studies", "result": "well tolerated safety profile"},
      {"measurement": "patients with objective partial responses", "setting": "[5]; [8]", "result": 3, "unit": "patients"},
      {"measurement": "patients with stabilization of disease status", "setting": "[5]; [8]", "result": 9, "unit": "patients"},
      {"measurement": "patients reporting acneiform rash", "setting": "[5]; first group of patients in the head and neck cancer study", "result": "approximately 70%"},
      {"measurement": "patients with objective partial responses", "setting": "[6]", "result": 5, "unit": "patients"},
      {"measurement": "patients with stabilization of disease status", "setting": "[6]", "result": 4, "unit": "patients"}
    ]},
    {"smiles": "C#Cc1cccc(Nc2ncnc3cc(OCCOC)c(OCCOC)cc23)c1", "note": "[mesylate compounds, N-(3-ethynylphenyl)-6,7-bis(2-methoxyethoxy)-4-quinazolinamine]", "values": [
      {"measurement": "solubility in aqueous compositions", "setting": "[7]", "result": "more soluble"}
    ]}
  ]
}
